The IC50 is the concentration that inhibits the measured activity by half.

16 molecules from US7553979B2, “HSP90-inhibiting zearalanol compounds and methods of producing and using same” (Conforma Therapeutics Corporation, priority 2001, dated 2009) can be followed below.

For one experiment, the system named is HER2. The experiment can be described thus: HER2 inhibition assay (Her-2 degradation by flow cytometry in MCF-7 cells, as manifestation of HSP90 inhibition). The class given is cell-based. As to conditions: HER2 degradation, commercially acquired compounds (Sigma Aldrich), Table I, read-out: HER2 IC50. The procedure:
MCF-7 cells are seeded in 24 well plates at a density of approximately 30,000 cells/well and allowed to grow for 16 hours in DMEM supplemented with 10% FBS. Drug (a compound as specified in Table I) is then added at a concentration range of 100 μM to 0.01 uM. Cells are incubated for an additional […]. Drug treated cells and untreated control cells are trypsinized, and incubated at room temperature for 15 minutes with anti Her-2 neu Ab conjugated with phycoerythrin (Becton Dickinson, San Jose Calif.; Cat no. 340552) at a concentration of 0.25 ug/ml, or non-specific control IgGl conjugated with phycoerytirin (Becton Dickinson, San Jose Calif.; Cat no. 340761). Samples were analyzed using a FACS Calibur flow cytometer (Becton Dickinson) equipped with Argon-ion laser that which emits 15 mW of 488 nm light for excitation of the phycoerythrin fluorochrome. 10,000 events were collected per sample. A fluorescence histogram was generated and the mean fluorescence intensity (mfi) of each sample was determined using Cellquest software. The background was defined as the mfi generated from cells incubated with control IgG, and was subtracted from each sample stained with the HER-2/neu Ab. Percent degradation of Her-2 was calculated as follows: % Her-2 degradation=(mfi HER-2 sample)/(mfi HER-2 untreated cells)×100
Compounds of the following formula (constituents as described in Table I) were acquired from Sigma Aldrich (Milwaukee, Wis.) and evaluated for HSP90 inhibition as manifested by HER2 degradation.
The following compounds were synthesized and evaluated for Her 2 degradation, with the results reflected in Table 3.
In general terms: In flow cytometry, cells or beads pass a laser one at a time.
As to `C[C@H]1CCCC(=O)CCC/C=C/c2cc(O)cc(O)c2C(=O)O1` [2 (zearalenone), zearalenone, reference compound], the half-inhibitory concentration (IC50) turned out to be 7 µM.

For `C[C@H]1CCC[C@H](O)CCCCCc2cc(O)cc(O)c2C(=O)O1` [3 (α-zearalanol), α-zearalanol, reference compound], the half-maximal inhibitory concentration (IC50) was 30 µM.

As to `C[C@H]1CCCC(=O)CCCCCc2cc(O)cc(O)c2C(=O)O1` [1 (zearalanone), zearalanone, reference compound], the IC50 came to 13 µM.

With `C[C@H]1CCC[C@H](O)CCC/C=C/c2cc(O)cc(O)c2C(=O)O1` [5 (α-zearalenol), α-zearalenol, reference compound], the IC50 came out at 40 µM.

For `C[C@H]1CCC[C@@H](O)CCCCCc2cc(O)cc(O)c2C(=O)O1` [4 (β-zearalanol), β-zearalanol, reference compound], the IC50 was determined as 4 µM.

On to `C[C@H]1CCC[C@@H](O)CCC/C=C/c2cc(O)cc(O)c2C(=O)O1` [6 (β-zearalenol), β-zearalenol, reference compound], for which the IC50 came to 1 µM.

The same experiment, now with this note: synthesized compounds, Table 3, read-out: IC50 (Her 2 degradation).
With `COc1cc(OC(C)=O)c2c(c1C(C)=O)OCCCCC=CCCCCOC2=O` [Example 2.2, 1-acetoxy-3-methoxy-4-acetyl-6,7,8,9,12,13,14,15-octahydro-5,16-dioxa-benzocyclopentadecen-17-one], the IC50 came to 40 µM.

With `COc1cc(O)c2c(c1)OCCCCC(O)C(O)CCCCOC2=O` (stereo not shown) [Example 1], the IC50 was 30 µM.

Consider `COc1cc2c(c(OC(C)=O)c1)C(=O)OCCC/C=C\CCCO2` [Example 5.1, (9Z)-1-acetoxy-3-methoxy-6,7,8,11,12,13-hexahydro-5,14-dioxa-benzocyclotridecen-15-one], for which the IC50 turned out to be 13 µM.

As for `COc1cc2c(c(OC(C)=O)c1)C(=O)OCCCCC=CCCCCO2` [Example 2.1, 1-acetoxy-3-methoxy-6,7,8,9,12,13,14,15-octahydro-5,16-dioxa-benzocyclopentadecen-17-one], the half-maximal inhibitory concentration (IC50) was found to be 10 µM.

With `COc1cc(O)c2c(c1)/C=C/CCCC(=O)CCC(C)OC2=O` (stereo not shown) [Example 7, 4-hydroxy-2-methoxy-7-methyl-8,9,12,13-tetrahydro-7H,11H-6-oxa-benzocyclotridecene-5,10-dione], the IC50 is 60 µM.

For `COc1cc2c(c(OC(C)=O)c1)C(=O)OCCC/C=C/CCCO2` [Example 5.2, (9E)-1-acetoxy-3-methoxy-6,7,8,11,12,13-hexahydro-5,14-dioxa-benzocyclotridecen-15-one], the concentration for half-maximal inhibition (IC50) amounted to 15 µM.

For the molecule `COc1cc(O)c2c(c1)OCCCCCC(=O)CCCCOC2=O` [Example 3.2, 1-Hydroxy-3-methoxy-6,7,8,9,12,13,14,15-octahydro-11H-5,16-dioxa-benzocyclopentadecene-11,17-dione], the IC50 worked out at 16 µM.

Turning to `COc1cc(O)c2c(c1)OCCCC(O)C(O)CCCOC2=O` (stereo not shown) [Example 4, 1,9,10-Trihydroxy-3-methoxy-6,7,8,9,10,11,12,13-octahydro-5,14-dioxa-benzocyclotridecen-15-one], the IC50 was 12 µM.

Regarding `COc1cc(O)c2c(c1)OCCCCC(=O)CCCCCOC2=O` [Example 3.1, 1-hydroxy-3-methoxy-6,7,8,9,12,13,14,15-octahydro-11H-5,16-dioxa-benzocyclopentadecene-10,17-dione], the 50% inhibitory concentration (IC50) turned out to be 30 µM.

With `COc1cc2c(c(OC)c1)C(=O)OC(C)CCC(=O)CCC/C=C/2` (stereo not shown) [Example 6, 2,4-dimethoxy-7-methyl-8,9,12,13-tetrahydro-7H,11H-6-oxa-benzocyclotridecene-5,10-dione], the IC50 is 90 µM.
